# Columns and labels:
# [1] = target: Hepatocyte growth factor receptor (Homo sapiens, UniProt P08581); experiment: Inhibition of c-Met (unknown origin) by mobility shift assay
# [2] = target: Platelet-derived growth factor receptor beta (Homo sapiens, UniProt P09619); experiment: Inhibition of PDGFRbeta (unknown origin)
# MCF7 [3] = experiment: Cytotoxicity against human MCF7 cells assessed as cell growth inhibition by measuring lethal concentration by SRB assay; type: functional
# M14 = experiment: Cytotoxicity against human M14 cells assessed as cell growth inhibition by measuring lethal concentration by SRB assay; type: functional
# A549 [4] = experiment: Cytotoxicity against human A549 cells assessed as cell growth inhibition by measuring lethal concentration by SRB assay; type: functional; settings: read-out: LC50 (the source's name)
# SR = experiment: Cytotoxicity against human SR cells assessed as cell growth inhibition by measuring lethal concentration by SRB assay; type: functional; settings: read-out: LC50 (the source's name)
# OVCAR-3 = experiment: Cytotoxicity against human OVCAR-3 cells assessed as cell growth inhibition by measuring lethal concentration by SRB assay; type: functional
# PC-3 = experiment: Cytotoxicity against human PC-3 cells assessed as cell growth inhibition by measuring lethal concentration by SRB assay; type: functional; settings: read-out: LC50 (the source's name)
# A498 = experiment: Cytotoxicity against human A498 cells assessed as cell growth inhibition by measuring lethal concentration by SRB assay; type: functional
# MCF7 [5] = experiment: Cytotoxicity against human MCF7 cells assessed as reduction in cell growth incubated for 72 hrs by SRB assay; type: functional, cell-based; settings: MCF7, 72 h
# MCF7 [6] = experiment: Antiproliferative activity against human MCF7 cells assessed as reduction in cell growth incubated for 48 hrs by SRB assay; type: functional, cell-based; settings: MCF7, 48 h
# [7] = target: Epidermal growth factor receptor (Homo sapiens, UniProt P00533); experiment: Inhibition of EGFR (unknown origin)
# MCF7 [8] = experiment: Cytotoxicity against human MCF7 cells assessed as reduction in cell growth measured for 48 hrs by SRB assay; type: functional, cell-based; settings: MCF7, 48 h
# HCT-116 = experiment: Cytotoxicity against human HCT-116 cells assessed as cell growth inhibition by measuring lethal concentration by SRB assay; type: functional
# A549 [9] = experiment: Antiproliferative activity against human A549 cells assessed as reduction in cell growth incubated for 48 hrs by MTT assay; type: functional, cell-based; settings: A549, 48 h
# Hepatocyte growth factor receptor, sequence (P08581 whole entry): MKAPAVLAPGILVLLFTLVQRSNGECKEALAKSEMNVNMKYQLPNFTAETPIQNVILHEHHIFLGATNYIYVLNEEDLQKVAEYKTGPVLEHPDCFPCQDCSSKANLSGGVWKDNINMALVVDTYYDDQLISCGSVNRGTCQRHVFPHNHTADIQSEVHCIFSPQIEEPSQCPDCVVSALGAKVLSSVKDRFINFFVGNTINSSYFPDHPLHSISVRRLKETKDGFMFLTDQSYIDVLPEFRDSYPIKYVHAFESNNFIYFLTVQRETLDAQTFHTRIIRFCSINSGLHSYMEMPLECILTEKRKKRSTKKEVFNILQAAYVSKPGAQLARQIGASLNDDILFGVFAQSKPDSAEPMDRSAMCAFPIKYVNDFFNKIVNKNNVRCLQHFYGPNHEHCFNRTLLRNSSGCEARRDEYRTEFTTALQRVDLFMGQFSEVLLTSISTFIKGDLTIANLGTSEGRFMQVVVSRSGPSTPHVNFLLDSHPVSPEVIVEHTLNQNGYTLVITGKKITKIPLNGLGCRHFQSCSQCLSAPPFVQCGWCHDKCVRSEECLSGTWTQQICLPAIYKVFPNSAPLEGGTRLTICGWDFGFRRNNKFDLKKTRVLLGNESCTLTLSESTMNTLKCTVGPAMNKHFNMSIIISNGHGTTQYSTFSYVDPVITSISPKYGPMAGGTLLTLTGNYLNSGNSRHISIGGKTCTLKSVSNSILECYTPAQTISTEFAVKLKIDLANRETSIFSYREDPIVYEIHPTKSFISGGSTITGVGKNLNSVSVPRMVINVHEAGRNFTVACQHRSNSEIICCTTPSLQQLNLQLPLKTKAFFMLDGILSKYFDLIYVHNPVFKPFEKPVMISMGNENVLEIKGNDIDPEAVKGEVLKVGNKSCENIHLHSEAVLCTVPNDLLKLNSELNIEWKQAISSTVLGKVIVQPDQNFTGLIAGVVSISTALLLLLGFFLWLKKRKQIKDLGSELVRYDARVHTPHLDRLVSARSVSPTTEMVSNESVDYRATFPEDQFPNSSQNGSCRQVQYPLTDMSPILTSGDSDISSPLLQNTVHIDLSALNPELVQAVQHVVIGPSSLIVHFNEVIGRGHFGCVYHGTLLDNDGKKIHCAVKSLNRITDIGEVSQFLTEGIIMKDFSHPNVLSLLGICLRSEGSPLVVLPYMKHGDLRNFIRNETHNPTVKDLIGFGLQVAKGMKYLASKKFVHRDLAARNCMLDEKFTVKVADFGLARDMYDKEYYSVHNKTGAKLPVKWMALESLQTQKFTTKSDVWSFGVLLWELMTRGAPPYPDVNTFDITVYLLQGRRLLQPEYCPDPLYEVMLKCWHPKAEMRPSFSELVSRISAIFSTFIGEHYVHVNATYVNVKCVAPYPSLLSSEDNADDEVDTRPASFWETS
# Epidermal growth factor receptor, sequence (P00533 whole entry): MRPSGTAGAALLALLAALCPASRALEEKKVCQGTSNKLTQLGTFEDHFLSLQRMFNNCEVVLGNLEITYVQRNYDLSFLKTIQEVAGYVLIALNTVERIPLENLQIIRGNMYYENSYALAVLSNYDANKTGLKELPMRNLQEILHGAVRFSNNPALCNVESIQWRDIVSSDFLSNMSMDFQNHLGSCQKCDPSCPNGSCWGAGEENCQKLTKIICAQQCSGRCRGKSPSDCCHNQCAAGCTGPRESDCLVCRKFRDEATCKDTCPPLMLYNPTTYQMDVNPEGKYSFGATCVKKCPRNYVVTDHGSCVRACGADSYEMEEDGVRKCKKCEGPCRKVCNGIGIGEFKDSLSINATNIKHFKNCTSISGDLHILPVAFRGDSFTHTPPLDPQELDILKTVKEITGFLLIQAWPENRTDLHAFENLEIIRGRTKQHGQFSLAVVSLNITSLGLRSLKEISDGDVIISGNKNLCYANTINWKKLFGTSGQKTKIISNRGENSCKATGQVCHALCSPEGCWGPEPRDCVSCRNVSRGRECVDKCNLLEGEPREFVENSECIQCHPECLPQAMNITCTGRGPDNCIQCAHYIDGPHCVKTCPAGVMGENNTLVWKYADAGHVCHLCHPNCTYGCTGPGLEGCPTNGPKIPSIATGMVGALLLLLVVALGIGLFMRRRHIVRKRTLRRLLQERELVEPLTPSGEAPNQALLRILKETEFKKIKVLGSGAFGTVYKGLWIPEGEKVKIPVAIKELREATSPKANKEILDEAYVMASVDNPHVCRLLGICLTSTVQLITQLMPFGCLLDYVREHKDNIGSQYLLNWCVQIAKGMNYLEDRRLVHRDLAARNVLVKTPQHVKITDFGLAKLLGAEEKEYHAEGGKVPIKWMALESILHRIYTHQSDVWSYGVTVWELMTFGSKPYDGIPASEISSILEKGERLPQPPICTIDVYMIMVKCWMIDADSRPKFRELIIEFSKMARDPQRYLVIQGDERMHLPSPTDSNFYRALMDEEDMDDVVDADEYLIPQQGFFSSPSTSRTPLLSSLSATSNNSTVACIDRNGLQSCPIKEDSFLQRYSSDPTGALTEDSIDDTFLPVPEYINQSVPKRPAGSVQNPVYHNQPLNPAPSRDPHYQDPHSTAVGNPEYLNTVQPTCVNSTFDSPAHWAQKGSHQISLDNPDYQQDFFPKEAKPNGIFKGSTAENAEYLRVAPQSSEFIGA
# Platelet-derived growth factor receptor beta, sequence (P09619 whole entry): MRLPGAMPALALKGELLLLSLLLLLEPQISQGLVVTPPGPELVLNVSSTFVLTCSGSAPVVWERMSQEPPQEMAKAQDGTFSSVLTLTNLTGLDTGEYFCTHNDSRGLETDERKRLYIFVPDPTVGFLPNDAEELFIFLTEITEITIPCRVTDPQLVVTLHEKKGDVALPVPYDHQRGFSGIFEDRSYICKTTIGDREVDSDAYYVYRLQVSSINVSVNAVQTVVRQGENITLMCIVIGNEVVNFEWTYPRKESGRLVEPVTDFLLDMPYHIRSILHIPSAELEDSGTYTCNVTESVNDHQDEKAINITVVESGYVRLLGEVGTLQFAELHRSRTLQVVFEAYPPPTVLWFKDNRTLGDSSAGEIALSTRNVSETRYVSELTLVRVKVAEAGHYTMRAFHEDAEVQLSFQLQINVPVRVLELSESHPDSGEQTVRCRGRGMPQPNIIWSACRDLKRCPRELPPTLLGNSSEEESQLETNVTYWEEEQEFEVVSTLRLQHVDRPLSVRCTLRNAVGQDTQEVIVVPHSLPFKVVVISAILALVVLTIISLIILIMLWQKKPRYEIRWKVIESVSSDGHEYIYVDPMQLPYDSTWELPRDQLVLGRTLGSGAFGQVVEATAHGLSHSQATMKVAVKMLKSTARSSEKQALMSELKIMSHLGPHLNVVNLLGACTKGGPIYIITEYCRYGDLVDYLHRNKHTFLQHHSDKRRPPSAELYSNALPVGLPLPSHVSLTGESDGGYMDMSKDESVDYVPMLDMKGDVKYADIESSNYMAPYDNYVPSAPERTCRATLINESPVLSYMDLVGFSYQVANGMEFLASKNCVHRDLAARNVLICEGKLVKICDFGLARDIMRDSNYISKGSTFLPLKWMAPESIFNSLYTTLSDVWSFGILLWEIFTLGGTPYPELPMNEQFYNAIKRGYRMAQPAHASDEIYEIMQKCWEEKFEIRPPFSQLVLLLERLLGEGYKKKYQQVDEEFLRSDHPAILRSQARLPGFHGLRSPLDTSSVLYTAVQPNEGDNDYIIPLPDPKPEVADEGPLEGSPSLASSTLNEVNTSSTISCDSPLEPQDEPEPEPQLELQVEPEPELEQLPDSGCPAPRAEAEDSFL
structure (smiles),measurement,setting,value
COc1ccc2c(Oc3ccc(CC(=O)Nc4cn(C)nc4C)c(OC)c3)ccnc2c1,IC50,[1],0.004 µM
COc1ccc(-c2cc3cc(OC)ccc3nc2Nc2ccc(NC(=O)CN3CCN(C)CC3)cc2)cc1,IC50,[2],5 µM
COc1ccc(-c2cc3ccc(OC)cc3nc2Nc2ccc(NC(=O)CN3CCN(C)CC3)cc2)cc1,IC50,[2],5 µM
CCN(C(=O)c1cc(C(C)C)c(O)cc1O)c1cnc2ccccc2c1,IC50,[1],0.17 µM
CCCCCCOc1ccc(/C=N/Nc2cc(C)nc3ccc(Cl)cc23)cc1,LC50,MCF7 [3],6.97 µM
same,LC50,M14,6.26 µM
same,CC50,A549 [4],7.22 µM
same,CC50,SR,8.11 µM
same,LC50,OVCAR-3,6.83 µM
same,CC50,PC-3,5.83 µM
same,LC50,A498,6.55 µM
N#Cc1c(-c2ccc3ncc(C(N)=O)c(Nc4cccc(Br)c4)c3c2)csc1N,IC50,MCF7 [5],50.6 µM
CCCOc1ccc(/C=N/Nc2ccnc3ccc(Br)cc23)cc1,IC50,[2],1.83 µM
Cc1ccc(Nc2c(C(N)=O)cnc3ccc(C(=O)/C=C/c4ccc(-c5ccc(Cl)cc5)o4)cc23)cc1,IC50,MCF7 [5],3.35 µM
COc1ccc2nc(Cl)cc(C3CC(c4ccc(C)cc4)=NN3c3nc(C)c(NNc4ccccc4)s3)c2c1 (stereo not drawn),IC50,MCF7 [6],0.41 µM
COc1ccc2c(c1)CCc1c-2[nH]c(=O)c(C#N)c1-c1ccc(OC)c(OC)c1,IC50,[7],0.13 µM
same,IC50,MCF7 [8],13.7 µM
CCOC(=O)c1sc(N2N=C(c3ccc(C)cc3)CC2c2cc(Cl)nc3ccc(OC)cc23)nc1C (stereo not drawn),IC50,MCF7 [6],0.32 µM
CC(=O)c1ccc2ncc(C(N)=O)c(Nc3ccc(OCc4ccccc4)cc3)c2c1,IC50,MCF7 [5],10.8 µM
CCCCCOc1ccc(/C=N/Nc2cc(C)nc3ccc(Br)cc23)cc1,LC50,MCF7 [3],7.93 µM
same,LC50,M14,6.64 µM
same,CC50,A549 [4],7.15 µM
same,CC50,SR,21.3 µM
same,LC50,OVCAR-3,5.92 µM
same,LC50,HCT-116,6.35 µM
same,CC50,PC-3,5.88 µM
same,LC50,A498,6.02 µM
COc1ccc2c(c1)CCc1c-2nc(N)c(C#N)c1-c1ccc(OC)c(OC)c1,IC50,[7],0.13 µM
same,IC50,MCF7 [8],14.5 µM
CN1c2ccc(F)cc2SC1C(=O)Nc1cccc2c1N(Cc1ccc(OC3CCNCC3)cc1)CCC2 (stereo not drawn),IC50,[2],1.13 µM
COc1ccc2nc(Cl)cc(C3CC(c4ccc(C)cc4)=NN3c3nc(-c4ccc(Cl)cc4)cs3)c2c1 (stereo not drawn),IC50,MCF7 [6],1.18 µM
COc1ccc2nc(Cl)cc(C3CC(c4ccc(C)cc4)=NN3c3nc(C)c(C(=O)Nc4ccccc4)s3)c2c1 (stereo not drawn),IC50,MCF7 [6],0.36 µM
O=C(Cc1ccc([N+](=O)[O-])cc1)Nc1ccc2c(c1)CCCN2C(=O)c1ccc(Cl)cc1,IC50,A549 [9],0.06 µM
O=C(Cc1ccc(Br)cc1)Nc1ccc2c(c1)CCCN2C(=O)c1ccc(Cl)cc1,IC50,A549 [9],0.65 µM
CCOc1ccc(/C=N/Nc2ccnc3ccc(Br)cc23)cc1,IC50,[2],1.86 µM
O=C(Cc1ccccc1)Nc1ccc2c(c1)CCCN2C(=O)c1ccc(Cl)cc1,IC50,A549 [9],0.97 µM
CCCCOc1ccc(/C=N/Nc2ccnc3ccc(Br)cc23)cc1,IC50,[2],2.2 µM
O=C(Nc1ccc2c(c1)CCCN2C(=O)c1ccc(Cl)cc1)c1cc(C(F)(F)F)cc(C(F)(F)F)c1,IC50,A549 [9],3.2 µM
COc1ccc2nc(O)c(C3CC(c4ccc(C)cc4)=NN3C(C)=O)cc2c1 (stereo not drawn),IC50,MCF7 [6],0.21 µM
COc1ccc2c(c1)CCc1c-2[nH]c(=O)c(C#N)c1-c1ccc(OC)cc1OC,IC50,[7],0.13 µM
same,IC50,MCF7 [8],7.21 µM
COc1ccc2c(c1)CCc1c-2nc(N)c(C#N)c1-c1ccc(OC)cc1OC,IC50,[7],0.13 µM
same,IC50,MCF7 [8],17.6 µM
CCOC(=O)C(=O)Nc1ccc2c(c1)CCCN2C(=O)c1ccc(Cl)cc1,IC50,A549 [9],0.15 µM
CCCCCCOc1ccc(/C=N/Nc2cc(C)nc3ccc(Br)cc23)cc1,LC50,MCF7 [3],6.84 µM
same,LC50,M14,6.67 µM
same,CC50,A549 [4],6.61 µM
same,CC50,SR,> 100 µM
same,LC50,OVCAR-3,6.85 µM
same,LC50,HCT-116,4.67 µM
same,CC50,PC-3,5.84 µM
same,LC50,A498,6.03 µM
CCCCCOc1ccc(/C=N/Nc2cc(C)nc3ccc(Cl)cc23)cc1,LC50,MCF7 [3],7.04 µM
same,LC50,M14,5.91 µM
same,CC50,A549 [4],6.52 µM
same,CC50,SR,4.2 µM
same,LC50,OVCAR-3,6.51 µM
same,LC50,HCT-116,5.02 µM
same,CC50,PC-3,5.98 µM
same,LC50,A498,5.13 µM
CCCCOc1ccc(/C=N/Nc2cc(C)nc3ccc(Cl)cc23)cc1,LC50,MCF7 [3],6.87 µM
same,LC50,M14,8.07 µM
same,CC50,A549 [4],6.35 µM
same,CC50,SR,> 100 µM
same,LC50,OVCAR-3,7.04 µM
same,LC50,HCT-116,> 100 µM
same,CC50,PC-3,6.55 µM
same,LC50,A498,5.67 µM
Nc1ccc(CC(=O)Nc2ccc3c(c2)CCCN3C(=O)c2ccc(Cl)cc2)cc1,IC50,A549 [9],0.22 µM
COc1ccc2nc(Cl)cc(C3CC(c4ccc(C)cc4)=NN3c3nc(-c4ccccc4)cs3)c2c1 (stereo not drawn),IC50,MCF7 [6],0.21 µM
CCCCOc1ccc(/C=N/Nc2cc(C)nc3ccc(Br)cc23)cc1,LC50,MCF7 [3],7.37 µM
same,LC50,M14,5.88 µM
same,CC50,A549 [4],6.61 µM
same,CC50,SR,> 100 µM
same,LC50,OVCAR-3,7.18 µM
same,LC50,HCT-116,6.17 µM
same,CC50,PC-3,6.49 µM
same,LC50,A498,5.47 µM
CCOc1ccc(/C=N/Nc2cc(C)nc3ccc(Cl)cc23)cc1,LC50,MCF7 [3],6.6 µM
same,LC50,M14,5.55 µM
same,CC50,A549 [4],6.94 µM
same,CC50,SR,15.5 µM
same,LC50,OVCAR-3,6.36 µM
same,CC50,PC-3,6.54 µM
same,LC50,A498,7.01 µM
CCCOc1ccc(/C=N/Nc2cc(C)nc3ccc(Cl)cc23)cc1,LC50,MCF7 [3],6.9 µM
same,LC50,M14,6.17 µM
same,CC50,A549 [4],6.49 µM
same,CC50,SR,38.6 µM
same,LC50,OVCAR-3,6.44 µM
same,LC50,HCT-116,6.48 µM
same,CC50,PC-3,6.39 µM
same,LC50,A498,5.79 µM
COc1ccc(-c2c(C#N)c(N)nc3c2CCc2cc(OC)ccc2-3)cc1,IC50,MCF7 [8],12 µM
CCCCOc1ccc(/C=N/Nc2ccnc3ccc(Cl)cc23)cc1,IC50,[2],1.76 µM
CCc1[nH]nc(NC(=O)Cc2ccc(Oc3ccnc4cc(OC)ccc34)cc2OC)c1C,IC50,[1],0.003 µM
COc1ccc(-c2c3c([nH]c(=O)c2C#N)-c2ccc(OC)cc2CC3)cc1,IC50,[7],0.13 µM
same,IC50,MCF7 [8],18.1 µM
